Laboratory results as given in patent US12297203B2, “Pyrrolopyrimidine ITK inhibitors” (ACLARIS THERAPEUTICS, INC., priority 2018, dated 2025).

What was measured:
ITK = ITK (Homo sapiens (Human), UniProt Q08881); assay: ITK inhibitor binding potency (LanthaScreen competitive binding assay); settings: read-out: ITK Inh. IC50
Description: The ability of candidate compounds to interact with ITK is quantitated by a competitive binding assay using the LanthaScreen technology developed by Life Technologies. This assay is based on the binding of a proprietary, Alexa Fluor® 647-labeled, ATP-competitive kinase inhibitor (kinase tracer-236) to the ITK expression construct in the presence of a Europium-conjugated antibody, resulting in a FRET (fluorescence resonance energy transfer) signal. Displacement of the kinase tracer by compound results in a lower emission ratio upon excitation of the Europium chelate. Candidate compounds are designed as potential irreversible inhibitors of ITK, capable of ligating to an active site cysteine residue resulting in time dependent covalent binding. The time dependent nature of irreversible inhibition is investigated by performing the binding assay with and without a pre-incubation of compound and ITK. […] The inhibitory potency of candidate compounds is measured in 20 mM HEPES pH 7.5, 10 mM MgCl2, 0.01% BSA, 0.0005% Tween-20, and 2% DMSO in the presence of 10 nM ITK, 2 nM Eu-anti-GST antibody, and 50 nM kinase tracer-236 using a 384-well plate format. Background signal is defined in the absence of ITK and uninhibited signal is defined in the presence of vehicle (2% DMSO) alone. Compounds were evaluated in an 11 point dose-response ranging from 20 uM to 0.34 nM. The binding assays are performed under two preincubation conditions to evaluate time dependence of inhibition. For the pre-incubation assay, ITK and Eu-anti-GST antibody are pre-incubated with compound or vehicle for two hours prior to the addition of kinase tracer. The non-preincubated assay is run under conditions where ITK and Eu-anti-GST antibody are added to a mixture of compound and kinase tracer. IC50 values of compounds are determined using a 4 parameter logistical fit of emission ratio as a function of the concentration of compound.

[1] = system: JAK1/3 phosphorylation of its substrate, STAT5, at Y694; assay: JAK1/3 target modulation assay (IL-2 stimulated STAT5 Y694 phosphorylation in PBMC); type: cell-based; settings: Homo sapiens, PBMC, Primary human peripheral blood mononuclear cells, IL-2 25 ng/mL; read-out: IL2-STAT5 Inh. IC50
Description: Target modulation was based upon the ability of a compound to inhibit JAK1/3 phosphorylation of its substrate, STAT5, at Y694. Primary human peripheral blood mononuclear cells were plated in V-bottom 96 well plates at 200,000 cells/well in 120 μL medium (RPMI-1640 with 10% fetal bovine serum, 10 mM HEPES buffer, 12.2 mM 2-mercaptoethanol, and supplemented with glutamine/penicillin/streptomycin). Compounds were added as 15 μL of 10× working stock solutions in medium with 1% DMSO (or medium with 1% DMSO for controls) and placed in a 37° C. incubator with gentle shaking for 1 hour. Stimulation was carried out using recombinant human IL-2 (R&D Systems #202-IL-050) to activate JAK1/3. IL-2 stock solution was diluted in media to 250 ng/mL and was added rapidly to all compound containing and stimulation only wells at 15 μL/well (final concentration=25 ng/mL). Wells designated ‘unstimulated’ received 15 μL of media only. The plate was placed back in a 37° C. incubator with gentle shaking for 5 minutes. After stimulation, the plates were immediately sealed with a plate seal, and cells pelleted at 400× g for 5 minutes. Media was removed using a multichannel aspirator, and 75 μL of cold Tris lysis buffer (MSD #R60TX-3) plus 1× Protease Inhibitor Solution (MSD #R70AA-1), 1× Phosphatase Inhibitor I (MSD #R70AA-1), and 1× Phosphatase Inhibitor II (MSD #R70AA-1) was added per well. Cells were incubated at 4° C. with gentle shaking for at least 30 minutes to allow for complete lysis. The plates were removed from 4° C., and 25 μL of lysate from each well was added to the corresponding well on the MSD plate. Samples were analyzed by either an MSD multiplex kit for Phospho-STAT5a,b/Total-STAT5a,b (MSD #K15163D) or an MSD single-plex kit for Phospho-STAT5a,b (MSD #K150IGD). The protocols for the respective kits were followed, and the plates were read on the MSD SECTOR S 600.

JAK3 = JAK3 (Homo sapiens (Human), UniProt P52333); assay: JAK3 enzyme activity assay (Caliper mobility shift); type: biochemical; settings: ATP at Km level; read-out: JAK3 Inh. IC50
Description: The ability of candidate compounds to interact with JAK3 is quantitated by a mobility shift assay using an LC3000 instrument developed by Caliper Life Sciences. This assay is based on mobility shift electrophoresis, in which fluorescently labelled product and fluorescently labelled substrate peaks are separated and detected independently. JAK3 product/substrate separation is obtained using the following instrument settings: Pressure=−1.4 psi, Downstream voltage=−2550V and Upstream voltage=−800V. The inhibitory potency of candidate compounds of JAK3 is measured in 20 mM HEPES pH 7.5, 10 mM MgCl2, 0.01% BSA, 0.0005% Tween-20, and 2% DMSO in the presence of 2.5 nM JAK3 (Life Technologies Catalog #PV3855), […] (Anaspec Catalog #AS-64106) and […] (Km level) using a 384-well plate format. Background signal is defined in the absence of enzyme and uninhibited signal is defined in the presence of vehicle (2% DMSO) alone. Compounds were evaluated in an 11 point dose-response ranging from […] to 0.34 nM. IC50 values of compounds are determined using a 4 parameter logistical fit of emission ratio as a function of the concentration of compound.

[2] = system: ITK phosphorylation of its substrate, PLCγ1, at Y783; assay: ITK target modulation assay (PLCγ1 Y783 phosphorylation, anti-CD3 stimulated Jurkat T cells); type: cell-based; settings: Homo sapiens, Jurkat, anti-CD3 Dynabeads stimulation, read-out: PLC-γ Inh. IC50
Description: Target modulation was based upon the ability of a compound to inhibit ITK phosphorylation of its substrate, PLCγ1, at Y783. Human Jurkat T cells (ATCC TIB-152) were plated in V-bottom 96 well plates at 400,000 cells/well in 80 μL medium (RPMI1640 with 10% heat inactivated serum and 55 μM 2-mercaptoethanol and supplemented with glutamine/penicillin/streptomycin). Compounds were added as 10 μL of 10× working stock solutions in medium with 1% DMSO (or medium with 1% DMSO for controls) and placed in a 37° C. incubator with gentle shaking for 1 hour. Stimulation was carried out using anti-CD3 Dynabeads (Invitrogen catalog #1151D) to activate the T cell receptor and mimic antigen presenting cells. Beads were washed and resuspended in medium at 1.84×10^8 beads/ml. Beads were added rapidly to all compound containing and stimulation only wells at 10 μL/well (bead:cell=2:1) with gentle mixing of the bead source between each addition. Wells designated ‘unstimulated’ received 10 μL of media only. The plate was immediately sealed with a plate seal and cells pelleted at 400× g for 4 minutes. Media was removed using a multichannel aspirator, 25 μL of cold hypotonic lysis buffer (VWR M334-100 ml) plus 1×HALT Protease Inhibitor Cocktail (ThermoFisher #78437), 1× Phosphatase Inhibitor Cocktail 2 (Sigma Aldrich #P5726), 1× Phosphatase Inhibitor Cocktail 3 (Sigma Aldrich #P0044) and 2 mM PMSF was added per well. Cells were incubated on ice for 30 minutes to swell the cells then lysed by pipetting 20 times using a multichannel pipet. The plates were then resealed and centrifuged for 5 minutes at 400× g to pellet the cellular debris. Two μL of the soluble component of each sample was spotted onto nitrocellulose and allowed to dry for 30 minutes. Nitrocellulose was wet in 1× Tris Buffer Saline (20 mM Tris pH7.5, 150 mM NaCl) then blocked in LiCOR Odyssey Blocking Buffer (TBS) (LiCOR #927-50000) for 1 hour at room temperature with rocking. Following blocking, nitrocellulose was incubated in LiCOR Odyssey Blocking Buffer (TBS) plus 0.2% Tween20 plus anti-phospho-PLCγ1 (Y783) antibody (CST #2821S) at 1:1000 and anti-PLCγ1 (Abcam #41433) at 1:5000 with gentle rocking overnight at 4° C. Nitrocellulose was then washed four times for 5 minutes each with TBS plus 0.1% Tween20 (TBST) then incubated in LiCOR Odyssey Blocking Buffer (TBS) plus 0.2% Tween20 plus secondary antibodies IRDye 800CW (LiCOR 926-32211) and IRDye 680RD (LiCOR 926-68070) both at 1:15,000 with gentle rocking at room temperature in the dark for 1 hour. Nitrocellulose was then washed four times for 5 minutes each with TBST at room temperature in the dark. A final rinse with TBS was done prior to imaging and quantifying using the LiCOR Odyssey Imager and software respectively.

ITK, sequence (Q08881 whole entry): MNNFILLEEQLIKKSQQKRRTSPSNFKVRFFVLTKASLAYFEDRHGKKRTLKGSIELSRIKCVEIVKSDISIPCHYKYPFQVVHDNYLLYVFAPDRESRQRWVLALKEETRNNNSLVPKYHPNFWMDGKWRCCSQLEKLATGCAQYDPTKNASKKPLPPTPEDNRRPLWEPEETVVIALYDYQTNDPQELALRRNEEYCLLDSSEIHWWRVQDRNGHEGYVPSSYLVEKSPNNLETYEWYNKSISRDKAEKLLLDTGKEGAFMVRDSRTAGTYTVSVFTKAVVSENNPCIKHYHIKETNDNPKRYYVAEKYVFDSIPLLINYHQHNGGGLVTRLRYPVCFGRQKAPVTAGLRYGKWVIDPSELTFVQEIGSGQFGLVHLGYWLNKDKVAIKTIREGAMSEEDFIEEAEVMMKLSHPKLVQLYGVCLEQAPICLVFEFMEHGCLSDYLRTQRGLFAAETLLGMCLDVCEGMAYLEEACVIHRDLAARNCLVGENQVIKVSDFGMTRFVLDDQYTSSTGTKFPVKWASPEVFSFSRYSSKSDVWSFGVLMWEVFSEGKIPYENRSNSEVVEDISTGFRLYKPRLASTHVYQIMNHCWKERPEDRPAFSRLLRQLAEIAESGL
JAK3, sequence (P52333 781-1124): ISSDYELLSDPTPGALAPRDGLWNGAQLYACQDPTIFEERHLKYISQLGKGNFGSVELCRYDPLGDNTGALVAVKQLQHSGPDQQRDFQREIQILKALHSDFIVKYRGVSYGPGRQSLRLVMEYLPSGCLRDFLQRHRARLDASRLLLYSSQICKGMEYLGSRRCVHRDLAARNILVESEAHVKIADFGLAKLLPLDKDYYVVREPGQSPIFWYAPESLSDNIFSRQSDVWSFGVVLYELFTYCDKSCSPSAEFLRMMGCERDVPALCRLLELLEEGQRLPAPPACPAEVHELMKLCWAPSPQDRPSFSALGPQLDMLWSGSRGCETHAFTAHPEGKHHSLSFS

Row | IC50 (ITK) [nM] | IC50 [1] [nM] | IC50 (JAK3) [nM] | IC50 [2] [nM] | Structure (SMILES)
1 | ≤ 10 | ≤ 100 | ≤ 10 | ≤ 100 | C=CC(=O)N1C[C@H](Nc2ncnc3[nH]cc([C@@H]4C[C@H]4COC)c23)CC[C@@H]1C (single isomer, unassigned) [Example 45]
2 | ≤ 10 | 100 to 1000 | ≤ 10 | 100 to 1000 | C=CC(=O)N1C[C@H](Nc2ncnc3[nH]cc([C@H]4CC4(F)F)c23)CC[C@@H]1C (single isomer, unassigned) [Example 49]
3 | ≤ 10 |  | 10 to 100 | ≤ 100 | C[C@H]1CC[C@@H](Nc2ncnc3[nH]cc(C4CC4(F)F)c23)CN1C(=O)/C=C/CN(C)C (mixture of isomers) [Example 59, (E)-1-((2S,5R)-5-((5-(2,2-difluorocyclopropyl)-7H-pyrrolo[2,3-d]pyrimidin-4-yl)amino)-2-methylpiperidin-1-yl)-4-(dimethylamino)but-2-en-1-one]
4 | ≤ 10 | ≤ 100 | ≤ 10 | 100 to 1000 | C=CC(=O)N1C[C@H](Nc2ncnc3[nH]cc([C@H]4[C@@H](C)C4(F)F)c23)CC[C@@H]1C (single isomer, unassigned) [Example 55]
5 | ≤ 10 | ≤ 100 | ≤ 10 | ≤ 100 | C=CC(=O)N1C[C@H](Nc2ccnc3[nH]cc([C@H]4CC4(F)F)c23)CC[C@@H]1C (single isomer, unassigned) [Example 73]
6 | ≤ 10 |  |  |  | C=CC(=O)N1CCC[C@@H](Nc2ncnc3[nH]cc([C@@]45CCC[C@@H]4C5(F)F)c23)C1 (single isomer, unassigned) [Example 79, 1-((R)-3-((5-((1R,5S)-6,6-difluorobicyclo[3.1.0]hexan-1-yl)-7H-pyrrolo[2,3-d]pyrimidin-4-yl)amino)piperidin-1-yl)prop-2-en-1-one]

More lines, now with the values behind:

Row | Structure (SMILES) | IC50 (ITK) [nM] | IC50 [1] [nM] | IC50 (JAK3) [nM] | IC50 [2] [nM]
7 | C=CC(=O)N1C[C@H](Nc2ncnc3[nH]cc([C@H]4C(C)(C)C4(F)F)c23)CC[C@@H]1C (single isomer, unassigned) [Example 53] | ≤ 10 | ≤ 100 |  | 100 to 1000
8 | C=CC(=O)N1C[C@@H](Nc2ncnc3[nH]cc([C@@H]4CC4(F)F)c23)CC[C@H]1CC (single isomer, unassigned) [Example 70] | ≤ 10 | 100 to 1000 | ≤ 10 | 100 to 1000
9 | C[C@H]1CC[C@@H](Nc2ncnc3[nH]cc(CC4CC4)c23)CN1C(=O)/C=C/CN(C)C [Example 37, (E)-1-((2S,5R)-5-((5-(cyclopropylmethyl)-7H-pyrrolo[2,3-d]pyrimidin-4-yl)amino)-2-methylpiperidin-1-yl)-4-(dimethylamino)but-2-en-1-one] | ≤ 10 | > 1000 | 10 to 100 | 100 to 1000
10 | C=CC(=O)N1CCC[C@@H](Nc2ccnc3[nH]cc(C(=O)C4CC4)c23)C1 [Example 9, (R)-1-(3-((3-(cyclopropanecarbonyl)-1H-pyrrolo[2,3-b]pyridin-4-yl)amino)piperidin-1-yl)prop-2-en-1-one] | ≤ 10 | 100 to 1000 | ≤ 10 | 100 to 1000
11 | C=CC(=O)N1CCC[C@@H](Nc2ncnc3[nH]cc(C4(C)CC4)c23)C1 [Example 23, (R)-1-(3-((5-(1-methylcyclopropyl)-7H-pyrrolo[2,3-d]pyrimidin-4-yl)amino)piperidin-1-yl)prop-2-en-1-one] | ≤ 10 | 100 to 1000 | ≤ 10 | 100 to 1000
12 | C=CC(=O)N1C[C@@H](Nc2ncnc3[nH]cc([C@H]4CC4(F)F)c23)CC[C@H]1C(C)C (single isomer, unassigned) [Example 65] | ≤ 10 | 100 to 1000 | ≤ 10 | ≤ 100
13 | C=CC(=O)N1C[C@H](Nc2ncnc3[nH]cc(C(=O)C(F)(F)F)c23)CC[C@@H]1C [Example 33, 1-((2S,5R)-2-methyl-5-((5-(2,2,2-trifluoroacetyl)-7H-pyrrolo[2,3-d]pyrimidin-4-yl)amino)piperidin-1-yl)prop-2-en-1-one] | ≤ 10 |  | 10 to 100 | 100 to 1000
14 | C=CC(=O)N1CCC[C@@H](Nc2ncnc3[nH]cc([C@@]45CCC[C@@H]4C5(F)F)c23)C1 (single isomer, unassigned) [Example 79] |  | 100 to 1000 | ≤ 10 | 100 to 1000
